Assay results published in patent publication US20230346831A1, “METHODS FOR TREATING […] USING LOW DOSE CARBON MONOXIDE” (priority 2020, published 2023).
Values joined by “and” are separate entries in the source; they are usually repeats but may differ in a detail not shown here. Equal values may be shown once.

Tested on: MCF7/TGL cells
Experiment: metabolomic assay (polar metabolite profiling, mass spectrometry)
Assay type: cell-based, human
Method: Extraction and analysis were performed with the same parameters as the method disclosed in FIG. 7.
7 × 10^6 cells were seeded in 10-cm cell culture plates with DMEM containing 10% FBS, 0.2 mM L-glutamine and 1% penicillin/streptomycin. Additionally, MCF7/TGL/pQ was cultured in media containing 0.5 µgml^-1 puromycin and 25 mM HEPES. After 16 hours of incubation, metabolites were extracted from the cells using 80% methanol. The remaining steps were carried out by Weill Cornell Medicine Proteomics and Metabolomics Core Facility according to M. D. Goncalves et al., Proc Natl Acad Sci USA 115, E743-E752 (2018). All data analyses were done using MetaboAnalyst 4.0 (www.metaboanalyst.ca/).
To investigate whether 250 ppm CO mimics hypoxia, the HiF1α protein levels were examined in CO treated MCF7/TGL and MDA-MB-231/TGL cells. […] To determine whether 250 ppm CO affects metabolism, polar metabolites were profiled using two breast cancer cell lines, MCF7/TGL and MDA-MB-231/TGL (FIGS. 7-9).

[1] = MCF7/TGL cells, 250 ppm CO, 16 hours

[C-]#[O+] [CO, Carbon monoxide]
Peak Height Cytosine (HMDB00630, MCF7/TGL cells treated with CO, replicates CO 1-3): 153,235 and 158,066 and 214,404 | Peak Height L-Glutamine (HMDB00641, MCF7/TGL cells treated with CO, replicates CO 1-3): 2,010,884,000 and 2,067,120,000 and 2,186,859,000 | Peak Height D-Fructose (HMDB00660, MCF7/TGL cells treated with CO, replicates CO 1-3): 2,161,466 and 2,426,370 and 4,390,968 | Peak Height Indolelactic acid (HMDB00671, MCF7/TGL cells treated with CO, replicates CO 1-3): 168,415 and 166,030 and 323,966 | Peak Height Indoxyl sulfate (HMDB00682, MCF7/TGL cells treated with CO, replicates CO 1-3): 31,554 and 19,025 and 38,019 | Peak Height L-Kynurenine (HMDB00684, MCF7/TGL cells treated with CO, replicates CO 1-3): 186,534 and 218,684 and 386,445 | Peak Height L-Leucine (HMDB00687, MCF7/TGL cells treated with CO, replicates CO 1-3): 319,755,000 and 339,183,100 and 446,258,700 | Peak Height L-Methionine (HMDB00696, MCF7/TGL cells treated with CO, replicates CO 1-3): 110,122,300 and 114,069,500 and 202,567,100 | Peak Height Hexanoylcarnirine (HMDB00705, MCF7/TGL cells treated with CO, replicates CO 1-3): 309,788 and 384,626 and 554,943 | Peak Height Hippuric acid (HMDB00714, MCF7/TGL cells treated with CO, replicates CO 1-3): 41,839 and 33,037 and 50,895 | Peak Height Kynurenic acid (HMDB00715, MCF7/TGL cells treated with CO, replicates CO 1-3): 57,830 and 46,636 and 67,981 | Peak Height Malic acid (HMDB00744, MCF7/TGL cells treated with CO, replicates CO 1-3): 118,667,000 and 141,604,200 and 190,900,500 | Peak Height N-Acetyl-L-alanine (HMDB00766, MCF7/TGL cells treated with CO, replicates CO 1-3): 3,050,982 and 3,282,590 and 5,343,814 | Peak Height Phenyllactic acid (HMDB00779, MCF7/TGL cells treated with CO, replicates CO 1-3): 375,745 and 377,557 and 505,569 | Peak Height 3-Phosphoglyceric acid (HMDB00807, MCF7/TGL cells treated with CO, replicates CO 1-3): 830,372 and 1,313,918 and 2,225,910 | Peak Height N-Acetyl-L-aspartic acid (HMDB00812, MCF7/TGL cells treated with CO, replicates CO 1-3): 107,096,600 and 121,628,700 and 146,462,300 | Peak Height Phenylacetylglycine (HMDB00821, MCF7/TGL cells treated with CO, replicates CO 1-3): 1,455,001 and 1,300,695 and 2,222,377 | Peak Height Propionylcarnitine (HMDB00824, MCF7/TGL cells treated with CO, replicates CO 1-3): 88,247,270 and 88,089,220 and 114,107,300 | Peak Height Ureidosuccinic acid (HMDB00828, MCF7/TGL cells treated with CO, replicates CO 1-3): 967,259 and 2,115,336 and 2,977,458 | Peak Height L-Valine (HMDB00883, MCF7/TGL cells treated with CO, replicates CO 1-3): 166,887,800 and 164,029,200 and 219,042,800 | Peak Height Acetylcholine (HMDB00895, MCF7/TGL cells treated with CO, replicates CO 1-3): 79,843,420 and 75,982,720 and 87,382,500 | Peak Height NAD (HMDB00902, MCF7/TGL cells treated with CO, replicates CO 1-3): 6,156,942 and 7,187,370 and 12,756,100 | Peak Height Citrulline (HMDB00904, MCF7/TGL cells treated with CO, replicates CO 1-3): 9,044,262 and 10,234,370 and 14,264,050 | Peak Height L-Tryptophan (HMDB00929, MCF7/TGL cells treated with CO, replicates CO 1-3): 30,996,070 and 34,786,840 and 68,643,900 | Peak Height Uridine diphosphate glucuronic acid (HMDB00935, MCF7/TGL cells treated with CO, replicates CO 1-3): 726,138 and 548,546 and 770,082 | Peak Height S-Adenosylhomocysteine (HMDB00939, MCF7/TGL cells treated with CO, replicates CO 1-3): 56,652 and 145,088 and 413,677 | Peak Height Threonic acid (HMDB00943, MCF7/TGL cells treated with CO, replicates CO 1-3): 76,882,710 and 94,196,330 and 129,619,900 | Peak Height dGDP (HMDB00960, MCF7/TGL cells treated with CO, replicates CO 1-3): 686,954 and 539,654 and 784,042 | Peak Height Hypotaurine (HMDB00965, MCF7/TGL cells treated with CO, replicates CO 1-3): 4,796,295 and 5,519,371 and 5,943,089 | Peak Height Adenosine phosphosulfate (HMDB01003, MCF7/TGL cells treated with CO, replicates CO 1-3): 14,981 and 16,338 | Peak Height Deoxyribose 5-phosphate (HMDB01031, MCF7/TGL cells treated with CO, replicates CO 1-3): 19,019 and 34,976 and 30,540 | Peak Height S-Lactoylglutathione (HMDB01066, MCF7/TGL cells treated with CO, replicates CO 1-3): 397,298 and 293,636 and 484,692 | Peak Height D-Sedoheptulose 7-phosphate (HMDB01068, MCF7/TGL cells treated with CO, replicates CO 1-3): 151,546 and 165,071 and 234,010 | Peak Height D-Glyceraldehyde 3-phosphate (HMDB01112, MCF7/TGL cells treated with CO, replicates CO 1-3): 1,475,183 and 1,160,887 and 1,058,732 | Peak Height N-Acetylglutamic acid (HMDB01138, MCF7/TGL cells treated with CO, replicates CO 1-3): 567,078 and 897,146 and 1,371,040 | Peak Height 5′-Methylthioadenosine (HMDB01173, MCF7/TGL cells treated with CO, replicates CO 1-3): 269,714 and 419,042 and 1,274,477 | Peak Height S-Adenosylmethionine (HMDB01185, MCF7/TGL cells treated with CO, replicates CO 1-3): 9,310,209 and 12,590,700 and 17,427,170 | Peak Height Guanosine diphosphate (HMDB01201, MCF7/TGL cells treated with CO, replicates CO 1-3): 35,607 and 34,452 and 43,718 | Peak Height Allantoic acid (HMDB01209, MCF7/TGL cells treated with CO, replicates CO 1-3): 44,843 and 53,026 and 96,308 | Peak Height 5-Thymidylic acid (HMDB01227, MCF7/TGL cells treated with CO, replicates CO 1-3): 266,456 and 133,281 and 141,715 | Peak Height Glucosamine 6-phosphate (HMDB01254, MCF7/TGL cells treated with CO, replicates CO 1-3): 44,392 and 62,516 and 90,486 | Peak Height Guanosine triphosphate (HMDB01273, MCF7/TGL cells treated with CO, replicates CO 1-3): 84,003 and 60,453 and 112,154 | Peak Height N6,N6,N6-Trimethyl-L-lysine (HMDB01325, MCF7/TGL cells treated with CO, replicates CO 1-3): 4,594,085 and 5,317,512 and 7,697,279 | Peak Height ADP (HMDB01341, MCF7/TGL cells treated with CO, replicates CO 1-3): 902,793 and 705,422 and 1,082,377 | Peak Height Thymidine 5′-triphosphate (HMDB01342, MCF7/TGL cells treated with CO, replicates CO 1-3): 54,889 and 34,363 and 35,046 | Peak Height N-Acetyl-glucosamine 1-phosphate (HMDB01367, MCF7/TGL cells treated with CO, replicates CO 1-3): 464,872 and 467,412 and 595,300 | Peak Height Guanosine monophosphate (HMDB01397, MCF7/TGL cells treated with CO, replicates CO 1-3): 73,405 and 58,750 and 80,249 | Peak Height Glucose 6-phosphate (HMDB01401, MCF7/TGL cells treated with CO, replicates CO 1-3): 1,799,795 and 2,339,699 and 3,140,759 | Peak Height Niacinamide (HMDB01406, MCF7/TGL cells treated with CO, replicates CO 1-3): 1,738,434 and 1,604,153 and 3,615,850 | Peak Height Citicoline (HMDB01413, MCF7/TGL cells treated with CO, replicates CO 1-3): 1,054,917 and 1,269,775 and 2,126,892 | Peak Height NADH (HMDB01487, MCF7/TGL cells treated with CO, replicates CO 1-3): 81,979 and 73,214 and 61,204 | Peak Height Asymmetric dimethylarginine (HMDB01539, MCF7/TGL cells treated with CO, replicates CO 1-3): 2,485,123 and 2,893,325 and 4,095,202 | Peak Height CDP (HMDB01546, MCF7/TGL cells treated with CO, replicates CO 1-3): 49,666 and 36,830 and 44,004 | Peak Height D-Ribose 5-phosphate (HMDB01548, MCF7/TGL cells treated with CO, replicates CO 1-3): 523,976 and 578,358 and 695,562 | Peak Height CDP-Ethanolamine (HMDB01564, MCF7/TGL cells treated with CO, replicates CO 1-3): 229,328 and 262,826 and 313,255 | Peak Height Phosphorylcholine (HMDB01565, MCF7/TGL cells treated with CO, replicates CO 1-3): 826,434,500 and 950,902,100 and 1,062,045,000 | Peak Height Glucose 1-phosphate (HMDB01586, MCF7/TGL cells treated with CO, replicates CO 1-3): 194,892 and 220,042 and 348,617 | Peak Height 2-Hydroxycaproic acid (HMDB01624, MCF7/TGL cells treated with CO, replicates CO 1-3): 663,141 and 926,482 and 905,559 | Peak Height DL-O-Phosphoserine (HMDB01721, MCF7/TGL cells treated with CO, replicates CO 1-3): 256,439 and 305,155 and 440,561 | Peak Height 2-Ketohexanoic acid (HMDB01864, MCF7/TGL cells treated with CO, replicates CO 1-3): 10,109,740 and 13,290,500 and 25,544,760 | Peak Height Acetylcysteine (HMDB01890, MCF7/TGL cells treated with CO, replicates CO 1-3): 309,165 and 445,217 and 662,532 | Peak Height Methionine sulfoxide (HMDB02005, MCF7/TGL cells treated with CO, replicates CO 1-3): 1,119,307 and 1,490,306 and 2,521,401 | Peak Height Imidazolelactic acid (HMDB02320, MCF7/TGL cells treated with CO, replicates CO 1-3): 128,890 and 215,532 and 355,864 | Peak Height Methylimidazoleacetic acid (HMDB02820, MCF7/TGL cells treated with CO, replicates CO 1-3): 2,032,579 and 2,307,084 and 4,227,106 | Peak Height Erythritol (HMDB02994, MCF7/TGL cells treated with CO, replicates CO 1-3): 124,085 and 149,580 and 273,411 | Peak Height Oxidized glutathione (HMDB03337, MCF7/TGL cells treated with CO, replicates CO 1-3): 1,351,310 and 1,735,245 and 4,066,758 | Peak Height L-Dihydroorotic acid (HMDB03349, MCF7/TGL cells treated with CO, replicates CO 1-3): 52,713 and 82,695 and 121,047 | Peak Height GDP-glucose (HMDB03351, MCF7/TGL cells treated with CO, replicates CO 1-3): 30,304 and 39,328 and 68,617 | Peak Height N-Acetylornithine (HMDB03357, MCF7/TGL cells treated with CO, replicates CO 1-3): 364,451 and 403,207 and 622,448 | Peak Height 4-Acetamidobutanoic acid (HMDB03681, MCF7/TGL cells treated with CO, replicates CO 1-3): 550,530 and 718,720 and 878,912 | Peak Height N-Acetylasparagine (HMDB06028, MCF7/TGL cells treated with CO, replicates CO 1-3): 279,146 and 204,547 and 192,934 | Peak Height N-Acetylglutamine (HMDB06029, MCF7/TGL cells treated with CO, replicates CO 1-3): 233,588 and 221,551 and 457,769 | Peak Height ADP-glucose (HMDB06557, MCF7/TGL cells treated with CO, replicates CO 1-3): 51,484 and 47,964 and 81,136 | Peak Height 4-Hydroxybenzaldehyde (HMDB11718, MCF7/TGL cells treated with CO, replicates CO 1-3): 1,638,500 and 1,711,975 and 2,780,422 | Peak Height N-Acetyl-L-methionine (HMDB11745, MCF7/TGL cells treated with CO, replicates CO 1-3): 1,517,454 and 1,648,819 and 2,302,821 | Peak Height D-2,3-Dihydroxypropanoic acid (HMDB31818, MCF7/TGL cells treated with CO, replicates CO 1-3): 2,390,333 and 3,141,171 and 4,932,187 | Peak Height 3-hydroxyhexadecanoic acid (HMDB61658, MCF7/TGL cells treated with CO, replicates CO 1-3): 11,142 and 13,344 and 11,314 | citric acid and phosphoenolpyruvic acid [1]: did not provide statistically significant results | nine common metabolites (fumaric acid, L-Dihydroorotic acid, D-2-Hydroxyglutaric, malic acid, NAD, GDP-glucose, pyruvic acid, inosinic acid, oxoglutaric acid) [1]: significantly downregulated | pyruvic acid, oxoglutaric acid, malic acid, and fumaric acid (TCA intermediates) [1]: significantly downregulated | succinic acid [1]: significantly downregulated | abundance of metabolites tested (metabolomics profiling) (MCF7/TGL/pQ cells, 250 ppm carbon monoxide for 16 hours): reduced the abundance of the majority of metabolites tested
